Like-named read-outs stand apart in the source and are kept apart here.
Legend:
HDAC1 = molecular target: T1, HDAC1 (Homo sapiens, UniProt Q13547); assay: In vitro HDAC1 enzymatic activity inhibition (Lys-Ac-AMC substrate); type: biochemical
T1 construct: purchased BPS Bioscience
Method: Determining the inhibition capability to HDAC activity through the substrate method of fluorophore 4-amino-7-coumarin coupled Ac-peptide (Lys-Ac-AMC). HDAC1 protein is purchased from BPS Bioscience Company; the reaction buffer system is a modified tris(hydroxymethyl)aminomethane (TRIS) buffer (pH7.0). All small molecule compounds are prepared and dissolved by 100% DMSO (dimethyl sulfoxide). HDAC is prepared into the buffer as per certain concentration to be served as the enzyme solution; trypsin and the fluorophore 4-amino-7-coumarin coupled Ac-peptide substrate are prepared into the buffer as per certain concentration to be served as the substrate solution. Adding the compound into the reaction wells of the 384 well plate at the designed concentration, then adding 15 μL HDAC solution into the reaction wells (adding 15 μL blank buffer into the control well 0) for incubation under ambient temperature for 15 min; then adding 10 μL substrate solution to start reaction; during the reaction, the final concentration of HDAC1 protein is 6 nM, trypsin 0.05 μM and Ac-peptide 8 μM.
(§1) Calculating the value of IC50 as per the formula: Y=background data+(top data−background data)/(1+10^((Log IC50−X)*rate of curve))
Where, Y refers to the inhibition ratio (%) and X refers to the compound concentration. […]
Analyzing the result data with the software GraphPad Prism and calculating the value of IC50 as per the formula: Y=background data+(top data−background data)/(1+10^((Log IC50−X)*rate of curve)). Where, Y refers to the inhibition ratio (%) and X refers to the compound concentration.

[1] = test system: MV4-11 cells (acute myeloid leukemia); assay: Cell proliferation inhibition, MV4-11 (cck-8); type: cell-based; settings: Homo sapiens
Method: (§2) The tumor cell lines are purchased from American Type Culture Collection (ATCC) and cultivated to the status of logarithmic growth as per the cultural method recommended by ATCC. The cells in logarithmic phase are spread on a 96 well plate as per 2000-3000/well; as for anchorage-dependent cells, the compound should be added in the test wells at certain concentration for incubation for 96 h after cell adherence. Determining cell proliferation activities with method MTT for tumor cells representing solid tumor model and with method cck-8 for tumor cells representing hematologic tumor model, and analyzing the result data with the software GraphPad Prism.
(§3) Calculating the value of IC50 as per the formula: Y=background data+(top data−background data)/(1+10^((Log IC50−X)*rate of curve)). Where, Y refers to the inhibition ratio (%) and X refers to the compound concentration.

PI3Kα = molecular target: T2, PI3Kα (Homo sapiens, UniProt P42336); assay: PI3Kα activity inhibition (Kinase-Glo); type: biochemical; settings: Table 1, graded; read-out: PI3Kα IC50
T2 construct: purchased Invitrogen PV4788
Method: Detecting the inhibition capability of the compound to PI3Kα and PI3Kδ activities with Kinase-Glo (purchased from Promege Company; Catalog No.: V3771). […] The reaction system also comprises substrates as PIP2 (4, 5-diphosphoinositide, purchased from Life Technologies Company) and ATP (triphosadenine, purchased from Sigma Company). The reaction buffer system comprises 50 mM HEPES (4-hydroxyethylpiperazine ethane sulfonic acid), 3 mM MgCl2, 1 mM EGTA (ethylene glycol bis(2-amino ethylether)quadrol), 100 mM NaCl, 0.03% CHAPS (3-[3-(cholamidopropyl)dimethylamino]-1-propanesulfonic acid), 2 mM DTT (dithiothreitol). The pH value of the reaction buffer is 7.5. […] Mixing the system evenly for incubation under ambient temperature (for 1 h in PI3Kα test and for 2 h in PI3Kδ test). After incubation, adding 10 μL Kinase-Glo which has been preheated to ambient temperature into each reaction well to terminate the reaction; shaking it in dark place for 15 min after it is mixed evenly, then measuring the fluorescence intensity with a microplate reader and analyzing the result data with the software GraphPad Prism.
as §1
Where, Y refers to the inhibition ratio (%) and X refers to the compound concentration.

[2] = test system: hct116 cells (colon cancer); assay: Cell proliferation inhibition, hct116 (MTT); type: cell-based; settings: Homo sapiens, HCT-116
Method: as §2, §3

[3] = test system: A2780s cells (ovarian cancer); assay: Cell proliferation inhibition, A2780s (MTT); type: cell-based; settings: Homo sapiens
Method: as §2, §3

[4] = Table 1, graded, read-out: HDAC1 IC50
[5] = 96 h incubation, read-out: Proliferation IC50, Acute myeloid leukemia MV4-11
[6] = read-out: IC50 to proliferation of MV4-11 cells
[7] = 96 h incubation, read-out: Proliferation IC50, Colon cancer hct116
[8] = read-out: IC50 to proliferation of hct116 cells
[9] = 96 h incubation, read-out: Proliferation IC50, Ovarian cancer A2780s
[10] = read-out: IC50 to proliferation of A2780s cells
[11] = read-out: inhibition value IC50 to the activity of HDAC1

T1 sequence (Q13547 whole entry, species assumed): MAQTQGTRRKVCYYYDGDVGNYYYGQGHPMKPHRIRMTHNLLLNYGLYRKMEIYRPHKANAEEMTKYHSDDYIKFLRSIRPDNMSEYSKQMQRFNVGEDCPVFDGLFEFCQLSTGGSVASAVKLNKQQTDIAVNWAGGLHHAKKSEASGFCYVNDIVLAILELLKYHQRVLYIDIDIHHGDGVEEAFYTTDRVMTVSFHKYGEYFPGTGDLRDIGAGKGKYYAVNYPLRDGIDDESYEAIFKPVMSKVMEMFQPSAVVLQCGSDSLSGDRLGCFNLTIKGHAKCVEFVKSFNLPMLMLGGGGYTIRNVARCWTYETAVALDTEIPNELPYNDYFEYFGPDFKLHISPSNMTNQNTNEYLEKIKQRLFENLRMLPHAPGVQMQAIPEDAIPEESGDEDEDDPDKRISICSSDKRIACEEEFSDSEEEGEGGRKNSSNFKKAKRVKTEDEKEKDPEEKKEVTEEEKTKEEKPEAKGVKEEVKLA
T2 sequence (P42336 whole entry, species assumed): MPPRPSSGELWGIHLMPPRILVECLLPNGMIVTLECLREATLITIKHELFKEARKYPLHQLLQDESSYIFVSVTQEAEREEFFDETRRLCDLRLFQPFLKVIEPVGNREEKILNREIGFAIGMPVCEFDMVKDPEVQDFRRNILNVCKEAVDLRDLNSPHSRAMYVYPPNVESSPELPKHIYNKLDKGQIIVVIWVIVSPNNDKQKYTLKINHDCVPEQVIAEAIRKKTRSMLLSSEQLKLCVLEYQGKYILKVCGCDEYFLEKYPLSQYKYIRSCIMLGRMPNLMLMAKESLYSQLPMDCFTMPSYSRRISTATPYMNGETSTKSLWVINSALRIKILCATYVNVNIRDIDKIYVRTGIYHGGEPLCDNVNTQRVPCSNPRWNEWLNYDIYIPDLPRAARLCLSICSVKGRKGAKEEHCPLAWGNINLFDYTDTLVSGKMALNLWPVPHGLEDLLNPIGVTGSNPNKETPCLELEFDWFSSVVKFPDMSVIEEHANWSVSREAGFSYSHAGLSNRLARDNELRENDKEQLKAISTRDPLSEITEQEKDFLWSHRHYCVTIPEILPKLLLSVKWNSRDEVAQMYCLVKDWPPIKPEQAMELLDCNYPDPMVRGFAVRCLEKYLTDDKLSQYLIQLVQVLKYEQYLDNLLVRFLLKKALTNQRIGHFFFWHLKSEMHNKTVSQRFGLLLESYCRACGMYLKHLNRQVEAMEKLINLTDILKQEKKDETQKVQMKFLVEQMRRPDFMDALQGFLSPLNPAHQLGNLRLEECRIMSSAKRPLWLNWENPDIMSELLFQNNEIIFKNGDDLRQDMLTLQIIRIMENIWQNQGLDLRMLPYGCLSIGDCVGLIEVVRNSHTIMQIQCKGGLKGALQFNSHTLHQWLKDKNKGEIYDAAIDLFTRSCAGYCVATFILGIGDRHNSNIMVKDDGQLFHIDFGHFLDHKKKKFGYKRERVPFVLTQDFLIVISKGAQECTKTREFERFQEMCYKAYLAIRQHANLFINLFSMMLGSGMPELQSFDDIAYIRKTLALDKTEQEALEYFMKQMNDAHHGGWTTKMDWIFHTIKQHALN
T2 sequence (P27986 whole entry partner, species assumed): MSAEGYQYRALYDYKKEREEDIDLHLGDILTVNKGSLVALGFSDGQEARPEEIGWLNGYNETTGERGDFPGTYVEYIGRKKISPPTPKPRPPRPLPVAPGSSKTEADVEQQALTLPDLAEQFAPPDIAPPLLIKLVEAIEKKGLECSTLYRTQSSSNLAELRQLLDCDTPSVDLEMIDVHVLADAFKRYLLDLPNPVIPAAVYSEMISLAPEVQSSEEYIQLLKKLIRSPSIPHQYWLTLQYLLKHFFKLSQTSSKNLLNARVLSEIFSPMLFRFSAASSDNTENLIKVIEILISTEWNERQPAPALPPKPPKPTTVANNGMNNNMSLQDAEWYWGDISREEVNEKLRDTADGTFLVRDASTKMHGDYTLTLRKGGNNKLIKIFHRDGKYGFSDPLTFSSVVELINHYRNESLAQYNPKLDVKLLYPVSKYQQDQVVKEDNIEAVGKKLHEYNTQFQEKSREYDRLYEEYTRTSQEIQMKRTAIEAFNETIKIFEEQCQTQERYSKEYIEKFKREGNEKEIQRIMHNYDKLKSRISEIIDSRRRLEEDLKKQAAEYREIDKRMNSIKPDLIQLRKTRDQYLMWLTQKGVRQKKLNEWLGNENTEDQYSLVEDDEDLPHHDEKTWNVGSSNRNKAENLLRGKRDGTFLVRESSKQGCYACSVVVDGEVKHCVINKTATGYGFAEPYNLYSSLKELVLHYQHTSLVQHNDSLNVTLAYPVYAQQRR

SMILES | IC50 (HDAC1; [4]) [nM] | IC50 [1, 5] [nM] | IC50 [1, 6] [nM] | IC50 (PI3Kα) [nM] | IC50 [2, 7] [nM] | IC50 [2, 8] [nM] | IC50 [3, 9] [nM] | IC50 [3, 10] [nM] | IC50 (HDAC1; [11]) [nM]
CCNc1ccc(-c2nc(N3CCOCC3)c3nc(CN(C)c4ncc(C(=O)NO)cn4)n(C)c3n2)cc1 [CLJ-48] | < 100 | 0.1 to 10 | 0.1 to 10 | > 10000 | 0.1 to 10 | 0.1 to 10 | 0.1 to 10 | 0.1 to 10 | –
CN(Cc1nc2c(N3CCOCC3)nc(-c3ccc(S(C)(=O)=O)cc3)nc2n1C)c1ncc(C(=O)NO)cn1 [CLJ-57, 2-(((2-(4-methylsulphonylphenyl)-9-methyl-6-morpholine-9H-purine-8-yl))methyl(methyl)amino)-N-hydroxyl pyrimidine-5-formamide] | < 1 | 0.1 to 10 | – | > 10000 | 10 to 100 | – | 0.1 to 10 | – | < 1
CCCCc1ccc(-c2nc(N3CCOCC3)c3nc(CN(C)c4ncc(C(=O)NO)cn4)n(C)c3n2)s1 [CLJ-21, 2-(((2-(5-n-butyl-2-thienyl)-9-methyl-6-morpholine-9H-purine-8-yl))methyl(methyl)amino)-N-hydroxyl pyrimidine-5-formamide] | < 100 | 0.1 to 10 | 0.1 to 10 | > 10000 | 0.1 to 10 | 0.1 to 10 | 0.1 to 10 | 0.1 to 10 | –
COc1ccc(C(F)(F)F)cc1-c1nc(N2CCOCC2)c2nc(CN(C)c3ncc(C(=O)NO)cn3)n(C)c2n1 [CLJ-38, 2-(((2-(2-methoxy-5-trifluoromethylphenyl)-9-methyl-6-morpholine-9H-purine-8-yl))methyl(methyl)amino)-N-hydroxyl pyrimidine-5-formamide] | < 100 | 0.1 to 10 | < 10 | > 10000 | 100 to 1000 | > 100 | 10 to 100 | – | –
Cc1ccc(-c2nc(N3CCOCC3)c3nc(CN(C)c4ncc(C(=O)NO)cn4)n(C)c3n2)cc1 [CLJ-60, 2-(((2-(p-methylbenzene)-9-methyl-6-morpholine-9H-purine-8-yl))methyl(methyl)amino)-N-hydroxyl pyrimidine-5-formamide] | < 100 | 0.1 to 10 | – | > 10000 | 10 to 100 | – | 0.1 to 10 | – | –
CN(Cc1nc2c(N3CCOCC3)nc(-c3ccc(C(F)(F)F)cc3)nc2n1C)c1ncc(C(=O)NO)cn1 [CLJ-55] | < 100 | 0.1 to 10 | – | > 10000 | 10 to 100 | – | 10 to 100 | – | –
COc1ccc(-c2nc(N3CCOCC3)c3nc(CN(C)c4ncc(C(=O)NO)cn4)n(C4CCCC4)c3n2)cn1 [CLJ-4, 2-(((9-cyclopentyl-2-(6-methoxyl-3-pyridyl)-6-morpholino-9H-purine-8-yl))methyl(methyl)amino)-N-hydroxyl pyrimidine-5-formamide] | < 100 | > 1000 | – | 1000 to 10000 | > 1000 | – | > 1000 | – | –
CCn1c(CN(C)c2ncc(C(=O)NO)cn2)nc2c(N3CCOCC3)nc(-c3ccc(OC)cc3)nc21 [CLJ-30, 2-((9-ethyl-2(4-methoxyphenyl)-6-morpholino-9H-purine-8-yl)methyl)(methyl)amino-N-hydroxyl pyrimidine-5-formamide] | < 100 | 0.1 to 10 | – | > 10000 | 10 to 100 | – | 10 to 100 | – | –
CN(Cc1nc2c(N3CCOCC3)nc(-c3ccc[nH]3)nc2n1C)c1ncc(C(=O)NO)cn1 [CLJ-24, 2-(((2-(1H-2-pyrrolyl)-9-methyl-6-morpholine-9H-purine-8-yl))methyl(methyl)amino)-N-hydroxyl pyrimidine-5-formamide] | < 1 | 0.1 to 10 | 0.1 to 10 | 1000 to 10000 | 0.1 to 10 | 0.1 to 10 | 0.1 to 10 | 0.1 to 10 | < 1
CN(Cc1nc2c(N3CCOCC3)nc(-c3ccc(Cl)c(C(F)(F)F)c3)nc2n1C)c1ncc(C(=O)NO)cn1 [CLJ-54, 2-(((2-(-4-chlorine-3-trifluoromethylphenyl)-9-methyl-6-morpholine-9H-purine-8-yl))methyl(methyl)amino)-N-hydroxyl pyrimidine-5-formamide] | < 100 | 100 to 1000 | – | > 10000 | 100 to 1000 | – | 100 to 1000 | – | –
CN(Cc1nc2c(N3CCOCC3)nc(-c3ccc(N)nc3)nc2n1C)c1ncc(C(=O)NO)cn1 [CLJ-7, 2-(((2-(p-amino-3-pyridyl)-9-methyl-6-morpholine-9H-purine-8-yl))methyl(methyl)amino)-N-hydroxyl pyrimidine-5-formamide] | < 100 | 0.1 to 10 | < 10 | > 10000 | 100 to 1000 | > 100 | 10 to 100 | – | –
CN(Cc1nc2c(N3CCOCC3)nc(-c3ccc(C(=O)O)s3)nc2n1C)c1ncc(C(=O)NO)cn1 [CLJ-20, 2-(((2-(5-carboxyl-2-thienyl)-9-methyl-6-morpholine-9H-purine-8-yl))methyl(methyl)amino)-N-hydroxyl pyrimidine-5-formamide] | < 100 | 0.1 to 10 | – | > 10000 | 0.1 to 10 | – | 10 to 100 | – | –
CN(Cc1nc2c(N3CCOCC3)nc(-c3cccc(O)c3)nc2n1C)c1ncc(C(=O)NO)cn1 [CLJ-27, 2-(((2-(3-hydroxyphenyl)-9-methyl-6-morpholine-9H-purine-8-yl))methyl(methyl)amino)-N-hydroxyl pyrimidine-5-formamide] | < 1 | 0.1 to 10 | – | > 10000 | 10 to 100 | – | 10 to 100 | – | < 1
CN(C)CCn1cc(-c2nc(N3CCOCC3)c3nc(CN(C)c4ncc(C(=O)NO)cn4)n(C)c3n2)cn1 [CLJ-25] | < 100 | 0.1 to 10 | 0.1 to 10 | 1000 to 10000 | 0.1 to 10 | 0.1 to 10 | 0.1 to 10 | 0.1 to 10 | –
CCn1c(CN(C)c2ncc(C(=O)NO)cn2)nc2c(N3CCOCC3)nc(-c3ccc(OC)nc3)nc21 [CLJ-2, 2-(((9-ethyl-2(6-methoxyl 3-pyridyl)-6-morpholino-9H-purine-8-yl))methyl(methyl)amino)-N-hydroxyl pyrimidine-5-formamide] | < 100 | 100 to 1000 | – | 1000 to 10000 | 100 to 1000 | – | 100 to 1000 | – | –
COc1ccc(-c2nc(N3CCOCC3)c3nc(CN(C)c4ncc(C(=O)NO)cn4)n(C(C)C)c3n2)cn1 [CLJ-3, 2-(((9-isopropyl-2-(6-methoxyl-3-pyridyl)-6-morpholino-9H-purine-8-yl))methyl(methyl)amino)-N-hydroxyl pyrimidine-5-formamide] | < 100 | > 1000 | – | 1000 to 10000 | > 1000 | – | > 1000 | – | –
COc1ccc(-c2nc(N3CCOCC3)c3nc(CN(C)c4ncc(C(=O)NO)cn4)n(C(C)C)c3n2)cc1 [CLJ-31] | 100 to 1000 | > 1000 | – | > 10000 | > 1000 | – | > 1000 | – | –

From US10227347B2, “Purinyl-N-hydroxyl pyrimidine formamide derivative, preparation methods and uses thereof” (Guizhou Bailing Group Pharmaceutical CO., LTD., priority 2015, dated 2019)
